According to ChEMBL document CHEMBL1201862, “PubChem BioAssay data set” (2004):
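Briefly, cells in 96-well plates were exposed to five compound concentrations for 48 h, and endpoints were estimated by linear interpolation. GI50: concentration for 50% inhibition of growth.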 Activity calls are given as the source filed them. Cut-off read from the data, not from the text of the source: active = GI50 up to about 1.1 µM and inactive = higher.

Key:
Assay in all cases: DTP human tumour cell line panel, 48 h
HCT-15 = tested on: HCT-15
EKVX = tested on: EKVX
OVCAR-4 = tested on: OVCAR-4
NCI-H460 = tested on: NCI-H460
HL-60 = tested on: HL-60
TK-10 = tested on: TK-10
OVCAR-8 = tested on: OVCAR-8
NCI-H522 = tested on: NCI-H522
ACHN = tested on: ACHN
RXF 393 = tested on: RXF 393
SF-295 = tested on: SF-295
SN12C = tested on: SN12C
UACC-257 = tested on: UACC-257
MOLT-4 = tested on: MOLT-4
SK-MEL-2 = tested on: SK-MEL-2
M14 = tested on: M14
UO-31 = tested on: UO-31
SNB-75 = tested on: SNB-75
IGROV-1 = tested on: IGROV-1

SMILES | GI50 (HCT-15) | GI50 (EKVX) | GI50 (OVCAR-4) | GI50 (NCI-H460) | GI50 (HL-60) | GI50 (TK-10) | GI50 (OVCAR-8) | GI50 (NCI-H522) | GI50 (ACHN) | GI50 (RXF 393) | GI50 (SF-295) | GI50 (SN12C) | GI50 (UACC-257) | GI50 (MOLT-4) | GI50 (SK-MEL-2) | GI50 (M14) | GI50 (UO-31) | GI50 (SNB-75) | GI50 (IGROV-1)
COc1cc(C=C2C(=O)OC(C)(C)OC2=O)cc(OC)c1OC | > 100 µM | > 100 µM (inactive) | > 100 µM (inactive) | > 100 µM (inactive) | > 100 µM (inactive) | > 100 µM (inactive) | > 100 µM (inactive) | > 100 µM (inactive) | > 100 µM (inactive) | > 100 µM (inactive) | > 100 µM (inactive) | > 100 µM (inactive) | > 100 µM (inactive) | > 100 µM (inactive) | > 100 µM (inactive) | > 100 µM (inactive) | > 100 µM (inactive) |  | 
CCOC(=O)C(NCc1ccc2c(c1)OCO2)(NC(=O)c1ccccc1)C(F)(F)F (stereo unspecified) | > 100 µM | 86.1 µM (inactive) | 76.7 µM (inactive) |  | 16.9 µM (inactive) | > 100 µM (inactive) | > 100 µM (inactive) | 39.1 µM (inactive) | > 100 µM (inactive) | > 100 µM (inactive) | > 100 µM (inactive) | > 100 µM (inactive) | > 100 µM (inactive) | 18 µM (inactive) | > 100 µM (inactive) | > 100 µM (inactive) | 51.3 µM (inactive) | > 100 µM (inactive) | > 100 µM (inactive)
CCOC(=O)c1c(C)n(-c2ccc(C)cc2)c(=O)c2ccccc2c(=O)c2c(=O)ccc(=O)c1=2 | 14.3 µM | 21.6 µM (inactive) | 21.4 µM (inactive) | 19.4 µM (inactive) | 14.1 µM (inactive) | 15.5 µM (inactive) | 16.2 µM (inactive) | 18.3 µM (inactive) | 13.4 µM (inactive) | 17.4 µM (inactive) |  | 21.7 µM (inactive) | 18.5 µM (inactive) | 2.87 µM (inactive) | 27 µM (inactive) | 20.4 µM (inactive) | 23.4 µM (inactive) | 23.3 µM (inactive) | 37.5 µM (inactive)
COc1ccc(/C=C2\C[C@H]3[C@@H]4CCC5=C/C(=N/O)CC[C@]5(C)[C@H]4CC[C@]3(C)\C2=N\O)cc1 | 10.6 µM | 12.5 µM (inactive) | 25.7 µM (inactive) | 6.59 µM (inactive) | < 0.01 µM (active) | 37.1 µM (inactive) | 9.42 µM (inactive) | 14.9 µM (inactive) | 5.52 µM (inactive) | 7.1 µM (inactive) | 12.6 µM (inactive) | 14.1 µM (inactive) | 30.1 µM (inactive) | 6.7 µM (inactive) | 22.2 µM (inactive) | 12.4 µM (inactive) | 4.53 µM (inactive) | 19.7 µM (inactive) | 37.3 µM (inactive)
O=C(c1ccco1)n1c2ccc(Br)cc2c2nc3ccccc3nc21 | 48.2 µM | 34.5 µM (inactive) | 48.1 µM (inactive) | 28.6 µM (inactive) | > 100 µM (inactive) | 45.8 µM (inactive) | 35.2 µM (inactive) | 12.1 µM (inactive) | 27.4 µM (inactive) | 52 µM (inactive) | 72.8 µM (inactive) | > 100 µM (inactive) | > 100 µM (inactive) | 22 µM (inactive) | 34.1 µM (inactive) | > 100 µM (inactive) | 27 µM (inactive) | 16.6 µM (inactive) | 19.4 µM (inactive)
O=C1CSC(c2c[nH]c3ccccc23)N1c1ccc(Cl)cc1Cl (stereo unspecified) | > 100 µM | > 100 µM (inactive) | > 100 µM (inactive) | > 100 µM (inactive) | > 100 µM (inactive) | > 100 µM (inactive) | > 100 µM (inactive) | > 100 µM (inactive) |  | > 100 µM (inactive) | > 100 µM (inactive) | > 100 µM (inactive) | > 100 µM (inactive) | > 100 µM (inactive) |  | > 100 µM (inactive) | > 100 µM (inactive) | 0.865 µM (active) | > 100 µM (inactive)
c1ccc2c(c1)CCc1cc3cc4c(nc3nc1-2)-c1ccccc1CC4 | > 100 µM | > 100 µM (inactive) |  | > 100 µM (inactive) | > 100 µM (inactive) | > 100 µM (inactive) | > 100 µM (inactive) | > 100 µM (inactive) | > 100 µM (inactive) | 69.7 µM (inactive) | > 100 µM (inactive) | > 100 µM (inactive) | > 100 µM (inactive) | > 100 µM (inactive) |  | > 100 µM (inactive) | > 100 µM (inactive) | > 100 µM (inactive) | > 100 µM (inactive)
Cc1ccc(Cl)c2c(=O)cc(-c3ccccc3)[nH]c12 | 46.2 µM |  | 55.3 µM (inactive) | 36.2 µM (inactive) | 48.5 µM (inactive) | 70.6 µM (inactive) | > 100 µM (inactive) | 63.7 µM (inactive) | 42.3 µM (inactive) | 29.2 µM (inactive) | 55.8 µM (inactive) | 56.4 µM (inactive) | 58.1 µM (inactive) | 32.9 µM (inactive) | 47.9 µM (inactive) | 43 µM (inactive) | 37.9 µM (inactive) | 28.8 µM (inactive) | 85.3 µM (inactive)
O=C(NC1C=CCC2C(=O)N(c3ccccc3)C(=O)C12)OCc1ccccc1 (stereo unspecified) |  | > 100 µM (inactive) | > 100 µM (inactive) | > 100 µM (inactive) | > 100 µM (inactive) | > 100 µM (inactive) | > 100 µM (inactive) | > 100 µM (inactive) | > 100 µM (inactive) | > 100 µM (inactive) | > 100 µM (inactive) | > 100 µM (inactive) | > 100 µM (inactive) | > 100 µM (inactive) | 57.7 µM (inactive) | > 100 µM (inactive) | > 100 µM (inactive) | > 100 µM (inactive) | > 100 µM (inactive)
O=C1Nc2c(ccc(Cl)c2I)C1=O | 18.9 µM | 16.4 µM (inactive) | 16.9 µM (inactive) | 17.9 µM (inactive) | 18.5 µM (inactive) | 36.2 µM (inactive) | 28.2 µM (inactive) | 15.6 µM (inactive) | 15.6 µM (inactive) | 17.4 µM (inactive) | 19.2 µM (inactive) | 17.1 µM (inactive) | > 10 µM (inactive) | 18.7 µM (inactive) | 13.7 µM (inactive) | 15.7 µM (inactive) | 18.2 µM (inactive) |  | 16.6 µM (inactive)
O=C1C(Cl)=C(NCCOCCO)C(=O)c2c(O)ccc(O)c21 | 1.85 µM |  | 2.37 µM (inactive) | 3.36 µM (inactive) | 3.89 µM (inactive) | 13.6 µM (inactive) | 7.36 µM (inactive) | 1.98 µM (inactive) | 15.4 µM (inactive) | 14.1 µM (inactive) | 11.6 µM (inactive) | 11 µM (inactive) | 2.97 µM (inactive) | 5.19 µM (inactive) | 8.67 µM (inactive) | 11.2 µM (inactive) | 16 µM (inactive) | 17 µM (inactive) | 5.6 µM (inactive)
O=C(Nc1cc(Cl)ccc1Cl)c1cc2cccc(Cl)c2oc1=O | > 100 µM | > 100 µM (inactive) |  | > 100 µM (inactive) | > 100 µM (inactive) | > 100 µM (inactive) | 47.1 µM (inactive) | > 100 µM (inactive) | > 100 µM (inactive) | > 100 µM (inactive) | > 100 µM (inactive) | > 100 µM (inactive) | 61.2 µM (inactive) | > 100 µM (inactive) |  | > 100 µM (inactive) |  | 37.1 µM (inactive) | > 100 µM (inactive)
CC12c3c4cc(Br)cc3Oc3cc(Br)cc(c31)Oc1cc(Br)cc(c12)O4 | 41.4 µM | 19.7 µM (inactive) | > 100 µM (inactive) | 63.1 µM (inactive) |  | 41.1 µM (inactive) | 55 µM (inactive) |  | 51.9 µM (inactive) |  | > 100 µM (inactive) | 31 µM (inactive) | 36.9 µM (inactive) | 23.1 µM (inactive) | 23.1 µM (inactive) | 35.4 µM (inactive) | 52 µM (inactive) | 15.5 µM (inactive) | 22.8 µM (inactive)
CC1=C(C(=O)Nc2ccccc2C)C(c2ccco2)C(C(=O)Nc2ccccc2C)=C(C)N1C |  | > 100 µM (inactive) | > 100 µM (inactive) | > 100 µM (inactive) | > 100 µM (inactive) | > 100 µM (inactive) | > 100 µM (inactive) | > 100 µM (inactive) | > 100 µM (inactive) | > 100 µM (inactive) | > 100 µM (inactive) | > 100 µM (inactive) | > 100 µM (inactive) | 51.2 µM (inactive) | > 100 µM (inactive) | > 100 µM (inactive) | > 100 µM (inactive) |  | > 100 µM (inactive)
O=C(c1cccs1)N(C(=S)N1CCN(c2ccccn2)CC1)c1ccccc1 | 61 µM |  | > 100 µM (inactive) | > 100 µM (inactive) | > 100 µM (inactive) | > 100 µM (inactive) | 81.7 µM (inactive) | 36.2 µM (inactive) | > 100 µM (inactive) | 35 µM (inactive) | 80.4 µM (inactive) | > 100 µM (inactive) | 83.2 µM (inactive) | 48.4 µM (inactive) | 57.4 µM (inactive) | 76.7 µM (inactive) | 39.2 µM (inactive) | > 100 µM (inactive) | > 100 µM (inactive)
COc1ccc(C(=CCC(C)C2CCC3[C@@H]4C(OC(C)=O)CC5CC(OC(C)=O)CC[C@]5(C)C4CC(OC(C)=O)[C@]23C)c2ccc(OC)cc2)cc1 (stereo partly specified) | 86.5 µM | > 100 µM (inactive) | 19.1 µM (inactive) | 55.2 µM (inactive) | 8.02 µM (inactive) | > 100 µM (inactive) | > 100 µM (inactive) | 23.8 µM (inactive) | 37.3 µM (inactive) |  | > 100 µM (inactive) | > 100 µM (inactive) | 99.5 µM (inactive) | 17.1 µM (inactive) |  | 19.1 µM (inactive) | 47.4 µM (inactive) | 34.8 µM (inactive) | > 100 µM (inactive)
